Read-outs that look alike come from different tables or passages of the source.
Assays:
Test in all cases: 3D clonogenic assay (PDX)
Assay type in all cases: cell-based, human
PAXF 1872 = conditions: PAXF 1872, Pancreas; for IC50: Homo sapiens
In short: (§1)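 Ex vivo clonogenic growth of patient-derived xenograft cells in a three-layer soft-agar system, IMDM with 20% FCS. Continuous exposure at ten half-log concentrations from 50 µM, in duplicate. Colonies were counted at maximal formation after 8–13 days.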

BXF 1258 = conditions: BXF 1258, Bladder; for IC50: Homo sapiens
In short: as §1

LXFA 526 = conditions: LXFA 526, Lung Adeno; for IC50: Homo sapiens
In short: as §1

MAXF 1322 = conditions: MAXF 1322, Breast; for IC50: Homo sapiens
In short: as §1

GXA 3040 = conditions: GXA 3040, Asian Gastric; for IC50: Homo sapiens
In short: as §1

BXF 1228 = conditions: BXF 1228, Bladder; for IC50: Homo sapiens
In short: as §1

LXFL 1674 = conditions: LXFL 1674, Lung Large Cell; for IC50: Homo sapiens
In short: as §1

LXFA 1584 = conditions: LXFA 1584, Lung Adeno; for IC50: Homo sapiens
In short: as §1

SXFS 117 = conditions: SXFS 117, Sarcoma Soft Tissue; for IC50: Homo sapiens
In short: as §1

BXF 1218 = conditions: BXF 1218, Bladder; for IC50: Homo sapiens
In short: as §1

LXFL 529 = conditions: LXFL 529, Lung Large Cell; for IC50: Homo sapiens
In short: as §1

RXF 1114 = conditions: RXF 1114, Renal; for IC50: Homo sapiens
In short: as §1

O[C@H](c1cc(-c2ccc(Cl)cc2)nc2ccccc12)[C@@H]1CCCCN1 [S1, (R)-(2-(4-chlorophenyl)quinolin-4-yl)((S)-piperidin-2-yl)methanol]
IC50 (PAXF 1872; read-out: abs. IC50): 9.3 µM | IC50 (PAXF 1872; read-out: rel. IC50): 8.89 µM | b (bottom plateau of concentration-effect curve) (PAXF 1872): 42 | t (top plateau of concentration-effect curve) (PAXF 1872): 89 | b (bottom plateau of concentration-effect curve) (BXF 1258): 44 | t (top plateau of concentration-effect curve) (BXF 1258): 103 | IC50 (BXF 1258; read-out: abs. IC50): 7.47 µM | IC50 (BXF 1258; read-out: rel. IC50): 2.54 µM | IC50 (LXFA 526; read-out: abs. IC50): 3.23 µM | IC50 (LXFA 526; read-out: rel. IC50): 2.91 µM | b (bottom plateau of concentration-effect curve) (LXFA 526): 10 | t (top plateau of concentration-effect curve) (LXFA 526): 96 | IC50 (MAXF 1322; read-out: abs. IC50): 4.77 µM | IC50 (MAXF 1322; read-out: rel. IC50): 3.82 µM | b (bottom plateau of concentration-effect curve) (MAXF 1322): 21 | t (top plateau of concentration-effect curve) (MAXF 1322): 93 | b (bottom plateau of concentration-effect curve) (GXA 3040): 13 | t (top plateau of concentration-effect curve) (GXA 3040): 94 | IC50 (GXA 3040; read-out: abs. IC50): 8.84 µM | IC50 (GXA 3040; read-out: rel. IC50): 8.79 µM | b (bottom plateau of concentration-effect curve) (BXF 1228): 22 | t (top plateau of concentration-effect curve) (BXF 1228): 98 | IC50 (BXF 1228; read-out: abs. IC50): 8.12 µM | IC50 (BXF 1228; read-out: rel. IC50): 6.67 µM | IC50 (LXFL 1674; read-out: abs. IC50): 6.68 µM | IC50 (LXFL 1674; read-out: rel. IC50): 6.59 µM | b (bottom plateau of concentration-effect curve) (LXFL 1674): 9 | t (top plateau of concentration-effect curve) (LXFL 1674): 93 | IC50 (LXFA 1584; read-out: abs. IC50): 7.81 µM | IC50 (LXFA 1584; read-out: rel. IC50): 6.79 µM | b (bottom plateau of concentration-effect curve) (LXFA 1584): 31 | t (top plateau of concentration-effect curve) (LXFA 1584): 95 | IC50 (SXFS 117; read-out: abs. IC50): 8.55 µM | IC50 (SXFS 117; read-out: rel. IC50): 8.58 µM | b (bottom plateau of concentration-effect curve) (SXFS 117): 4 | t (top plateau of concentration-effect curve) (SXFS 117): 91 | b (bottom plateau of concentration-effect curve) (BXF 1218): 15 | t (top plateau of concentration-effect curve) (BXF 1218): 100 | IC50 (BXF 1218; read-out: abs. IC50): 6.16 µM | IC50 (BXF 1218; read-out: rel. IC50): 6.02 µM | IC50 (LXFL 529; read-out: abs. IC50): 10.4 µM | IC50 (LXFL 529; read-out: rel. IC50): 10.1 µM | b (bottom plateau of concentration-effect curve) (LXFL 529): 11 | t (top plateau of concentration-effect curve) (LXFL 529): 92 | IC50 (RXF 1114; read-out: abs. IC50): 8.18 µM | IC50 (RXF 1114; read-out: rel. IC50): 7.98 µM | b (bottom plateau of concentration-effect curve) (RXF 1114): 30 | t (top plateau of concentration-effect curve) (RXF 1114): 94
